Data as given in US20260070905A1, “Derivatives of Imidazo[1,2-A]Pyridine with Anti-Inflammatory Activity” (Universitat de Veléncia, priority 2023, published 2026).
Entries after “also recorded” stand apart in the source; their conditions may differ.

Columns and labels:
[1] = target: T1, recombinant Alk5 kinase (TGFβRI) (Homo sapiens, UniProt P36897); test: In vitro Alk5 kinase inhibition (Kinase-Glo luminescent kinase assay); type: biochemical; settings: for % kinase activity reduction: values refer to a 100% reduction in activity of the inhibition control GW788388 Hydrate, concentrations of 5 and 10 μM evaluated, ATP 100 μM, 2 h; for Alk5 kinase inhibition: in vitro kinase assay (FIG. 1)
T1 construct: purchased Abcam ab105908
T1 sequence (P36897 34-503): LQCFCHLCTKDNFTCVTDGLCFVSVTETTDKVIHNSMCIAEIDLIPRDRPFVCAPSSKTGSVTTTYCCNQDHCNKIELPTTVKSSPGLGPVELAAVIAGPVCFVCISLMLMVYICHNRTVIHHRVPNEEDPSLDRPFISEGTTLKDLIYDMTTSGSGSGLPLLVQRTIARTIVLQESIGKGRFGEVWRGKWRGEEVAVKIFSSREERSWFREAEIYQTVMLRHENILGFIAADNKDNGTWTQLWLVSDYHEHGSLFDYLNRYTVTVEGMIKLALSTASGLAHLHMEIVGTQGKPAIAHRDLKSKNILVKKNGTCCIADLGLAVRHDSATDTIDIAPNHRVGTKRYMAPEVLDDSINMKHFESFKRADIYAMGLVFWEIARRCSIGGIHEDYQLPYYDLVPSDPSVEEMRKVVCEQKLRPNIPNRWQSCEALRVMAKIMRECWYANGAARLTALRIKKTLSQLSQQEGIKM
Description: For this purpose, recombinant Alk5 (Abcam, ref ab105908) was used, and kinase activity was determined using the commercial Kinase-Glo® Luminiscent kinase assay platform (Promega, ref. TB372).
For this purpose, commercially available recombinant Alk5 protein (Abcam, ref ab105908) was used, as well as the commercial Kinase-Glo® Luminiscent kinase assay platform (Promega, ref TB372), which determines the adenosine triphosphate (ATP) not consumed in the phosphorylation reaction by its conjugation to luciferin in a reaction catalyzed by the luciferase enzyme in the presence of Mg^2+. The luminescence observed is inversely proportional to kinase activity.
From this stock solution, dilutions were made in kinase buffer (Tris-HCl pH 7.5 40 mM; MgCl2 20 mM; bovine serum albumin (BSA) 0.1 mg/mL) of 10 μM and concentrations of 5 and 10 μM were evaluated.
Incubation was carried out for 2 hours at room temperature with stirring and in darkness, following the instructions for the commercial system.
After this time, 50 μL of commercial substrate (diluted 1:8) was added, left to stir for 10 minutes at room temperature, and the luminescence was read using a Luminoskan Ascent instrument (Thermo Scientific, Waltham, USA).
All reactions were performed in duplicate.

[2] = tested on: acute lung injury (ALI) induced by LPS; test: Murine model of acute lung injury (ALI) induced by intratracheal LPS; type: in vivo, mouse (C57BL/6J-OlaHsd); settings: mice
Excerpt: In order to evaluate the potential anti-inflammatory effect of the PS1906 molecule in an in vivo model, we selected the ALI model induced by tracheal instillation of lipopolysaccharide (LPS), which has been widely described in the literature and previously performed by members of the research group (Clemente-Moragón et al., 2020). This murine model is a model of acute lung inflammation or damage associated with a long-term fibrotic period, so it can be used to study both inflammatory lung diseases and pulmonary fibrotic processes.
Mice of the C57BL/6J-OlaHsd strain were chosen for this model. Adult mice were kept in pathogen-free conditions in a temperature-controlled room with a 12-hour light-dark cycle. Food and water were available ad libitum. The mice were anesthetized intraperitoneally with an injection of an anesthetic cocktail containing atropine sulfate (1 mg/kg; B. Braun, 1 mg/mL), xylazine hydrochloride (20 mg/kg; Rompun® Bayer, 20 mg/mL), and ketamine (100 mg/kg; Anesketin Dechra, 100 mg/mL). All experimental and other scientific procedures involving animals complied with EU Directive 2010/63EU and Recommendation 2007/526/EC, enacted into Spanish law under Real Decreto 53/2013. Animal protocols were approved by local ethics committees and the Animal Protection Area of the Autonomous Community of Madrid.
In vitro studies were taken into account when selecting the doses to be administered, with a concentration of 10 μM being considered the maximum effective (non-toxic) concentration. Assuming an approximate blood volume of 2 mL for a mouse weighing about 30 g, and taking into account a loss due to distribution, metabolism, or secretion of 50% of the products, we calculated dose 1 (D1) and selected dose 2 (D2) as twice the first. Thus, taking into account the respective molecular weights, the corresponding doses for the PS1906 product were 156 μg/kg (D1) and 312 μg/kg (D2). Physiological saline was used as a diluent for the preparation of the different doses. All doses were prepared to administer the same volume in the mouse. The doses were administered intravenously with the animal properly anesthetized moments before the induction of pulmonary inflammation. […]
After 24 h, the animals were sacrificed and the lungs were washed with 1.5 mL of cold PBS through a tracheal catheter (Introcan Safety 22G, Braun), and a total of 1 mL of bronchoalveolar lavage fluid was extracted from each mouse for the detection of neutrophils and lymphocytes by flow cytometry. […] The data were analyzed with FlowJo software (Ashland). […]

[3] = tested on: Caco-2 cells; test: Viability / MTT cytotoxicity assay on Caco-2 intestinal epithelial cells; type: cell-based; settings: Caco-2 epithelial cells, all concentrations used (1, 5 and 10 μM), 24 h (FIG. 3A)
Description: To quantify the percentage of cells that remained viable in each of the experiments, THP-1-XBlue™-CD14 macrophages (InvivoGen, 8 to 13 passages) were evaluated, derived from human THP-1 monocytes, which stably express the gene for the alkaline phosphatase enzyme inducible by the NF-kB and AP-1 promoters. Human intestinal epithelial Caco-2 cells (ATCC®, HTB-37TM, 10 to 12 passages) were also evaluated. To do this, Trypan blue (Gibco) was used as an exclusion stain. This dye penetrates cells with damaged membranes (a sign of cell death) and stains their cytoplasm dark blue. To do this, the cell suspensions tested were centrifuged at 500×g (5 min at 24° C.), the cell sediments were resuspended in 0.1 mL of PBS, and then 10 μL were mixed with 10 μL of trypan blue (0.4%) filtered through 0.22 μm. The percentage of live cells was determined in 10 μL of the above mixture using a chamber and a Countess™ cell counter (Invitrogen).
In this second cytotoxicity assessment on THP-1-XBlue-CD14 and Caco-2, the technique previously described was used with the MTT dye (3-(4,5-dimethylthiazol-2-yl)-2,5-diphenyltetrazolium bromide) (Biotium).
To do this, both types of cells were seeded in 96-well plates under conditions identical to those used in the anti-inflammation assays. The cells were then washed with PBS and treated with different compounds: 1) PBS (10 μL) (positive growth control, vehicle); 2) 20% DMSO (negative control, as high doses of this compound are cytotoxic); 3) different concentrations of the compounds PS1801 and PS1906 (1, 5, and 10 μM). The plates were incubated for 24 hours at 37° C., 5% CO2, and then 10 μL of MTT was added to each well and the plate was incubated for 4 hours at 37° C., 5% CO2. The formazan crystals formed were dissolved in 180 μL of DMSO, and the plate was incubated for 20 minutes with shaking at room temperature. The absorbance was measured in each well at 595 nm (problem) and 655 nm (background), following the manufacturer's instructions, using an iMark™ Microplate Absorbance Reader (Bio-Rad). The samples were analyzed in triplicate.

[4] = tested on: THP-1-XBlue™-CD14 macrophages; test: MTT cytotoxicity assay on THP-1-XBlue-CD14 macrophages; type: cell-based; settings: THP-1 macrophages, all concentrations used (1, 5 and 10 μM), 24 h (FIG. 2, FIG. 3B)
Excerpt: To quantify the percentage of cells that remained viable in each of the experiments, THP-1-XBlue™-CD14 macrophages (InvivoGen, 8 to 13 passages), derived from human THP-1 monocytes, which stably express the gene for the alkaline phosphatase enzyme inducible by the NF-kB and AP-1 promoters.
The MTT dye (3-(4,5-dimethylthiazol-2-yl)-2,5-diphenyltetrazolium bromide) (Biotium) was used. This assay is based on the cleavage of the yellow MTT tetrazolium salt to form purple formazan crystals, produced by metabolically active cells. Formazan is solubilized with DMSO and its concentration is determined by spectrophotometry; the optical density is proportional to the number of viable cells.
To do this, the cells were seeded in 96-well plates at a density of 3×10^5 cells/mL in RPMI 1640 medium (Gibco) supplemented with 10% FBS, penicillin, streptomycin (both at a concentration of 100 μg/mL, Sigma-Aldrich), and PMA (100 ng/mL) (Sigma-Aldrich), and were cultured at 37° C., 5% CO2 for 48 h. […] The absorbance was measured in each well at 595 nm (problem) and 655 nm (background), following the manufacturer's instructions, using an iMark™ Microplate Absorbance Reader (Bio-Rad). The samples were analyzed in triplicate. The percentage of viable cells was calculated using the following formula: […]

SMILES | % kinase activity reduction [1] [%] | ALI score (histopathological lung damage) ([2]; i.v. 156 μg/kg (D1) and 312 μg/kg (D2), LPS 10 mg/kg intratracheal, 24 h (FIG. 6A, 6B), listed as PS1906) | neutrophils in bronchoalveolar lavage fluid (flow cytometry) ([2]; i.v. 156 μg/kg (D1) and 312 μg/kg (D2), LPS 10 mg/kg intratracheal, 24 h (FIG. 6C)) | lymphocytes in bronchoalveolar lavage fluid (flow cytometry) ([2]; i.v. 156 μg/kg (D1) and 312 μg/kg (D2), LPS 10 mg/kg intratracheal, 24 h (FIG. 6D), not statistically significant) | total number of infiltrated cells in bronchoalveolar lavage fluid (flow cytometry) ([2]; i.v. D1 and D2, LPS intratracheal, 24 h) | cytotoxic effects (cell viability) [3] | Alk5 kinase inhibition [1] | cytotoxic effects (cell viability) [4]
Oc1ccc(-c2ccn3ccnc3c2)cc1 [Compound 12, 4-(Imidazo[1,2-a]pyridin-7-yl)phenol] | 87.5 | – | – | – | – | – | – | –
COc1ccc(-c2cn3ccc(-c4ccc(O)cc4)cc3n2)cc1 [Compound 16, 4-(2-(4-Methoxyphenyl)imidazo[1,2-a]pyridin-7-yl)phenol] | 75.4 | – | – | – | – | – | – | –
c1ccc2oc(-c3ccn4ccnc4c3)cc2c1 [Compound 26, 7-(Benzofuran-2-yl)imidazo[1,2-a]pyridine] | 93.4 | significantly different from the group of sick mice treated with LPS; also recorded: positive effect | dose-dependent anti-inflammatory effect | dose-dependent anti-inflammatory effect | dose-dependent anti-inflammatory effect | no cytotoxic effects | one of those that showed the greatest inhibitory effect | –
CCOC(=O)c1cc2cc(-c3cnc4ccccn34)ccc2[nH]1 [Compound 31, Ethyl 5-(imidazo[1,2-a]pyridin-3-yl)-1H-indole-2-carboxylate] | 79.1 | – | – | – | – | no cytotoxic effects | – | –
O.O=C(NC1CCOCC1)c1ccc(-c2cc(-c3c[nH]nc3-c3ccccn3)ccn2)cc1 [GW788388, 4-{4-[3-(pyridin-2-yl)-1H-pyrazol-4-yl]-pyridin-2-yl}-N-(tetrahydro-2H-pyran-4-yl)benzamide hydrate, reference compound] | – | – | – | – | – | lacking cytotoxic activity | approximately 25% | lacking cytotoxic activity
